Series [1] concerns the target T1, human M1 receptor (hCHRM1) (Homo sapiens, UniProt P11229).
T1 construct: expressed in transfected cells
T1 sequence (P11229 1-460): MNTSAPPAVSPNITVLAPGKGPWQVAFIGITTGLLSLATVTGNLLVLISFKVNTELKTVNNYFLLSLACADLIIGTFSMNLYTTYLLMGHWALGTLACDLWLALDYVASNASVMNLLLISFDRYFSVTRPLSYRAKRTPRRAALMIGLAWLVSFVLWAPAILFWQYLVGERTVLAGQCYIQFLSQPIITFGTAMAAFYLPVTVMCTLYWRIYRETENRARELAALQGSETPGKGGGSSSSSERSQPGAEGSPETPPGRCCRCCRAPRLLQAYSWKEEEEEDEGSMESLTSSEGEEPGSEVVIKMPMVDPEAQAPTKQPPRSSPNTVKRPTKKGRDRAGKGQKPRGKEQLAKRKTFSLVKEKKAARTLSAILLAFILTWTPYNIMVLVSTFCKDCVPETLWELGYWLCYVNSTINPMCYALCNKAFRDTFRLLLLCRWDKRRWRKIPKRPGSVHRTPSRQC
Briefly: Measurement of M1 receptor positive allosteric modulator (M1PAM) activity (IP1 HTRF, in presence of EC20 acetylcholine). Conditions: CHO-K1 cells stably expressing hCHRM1; acetylcholine at EC20 concentration; IP1 readout. It counts as cell-based. How it is done: Measurement of M1 Receptor Positive Allosteric Modulator (M1PAM) Activity
The activity of a test compound in the presence of acetylcholine at an EC20 concentration affording about 20% action of the maximum activity was measured as PAM activity.
The method therefor is as follows. To a 384-well white plate (Greiner) was added 4 μL of the test compound diluted with IP1 Stimulation buffer (CisBio) containing 0.1% fatty acid-free BSA containing 80 nM acetylcholine. Freeze stock of CHO-K1 cells stably expressing human M1 receptor (hCHRM1) was prepared with IP1 Stimulation buffer (CisBio) containing 0.1% fatty acid-free BSA, 4 μL thereof was added (10,000 cells/well) and the mixture was cultured in a 5% CO2 incubator at 37° C. for 1 hr. 4 μL of a solution (CisBio) containing IP1-d2 and Anti-IP1-cryptate Tb conjugate was added, the mixture was incubated at room temperature for 1 hr, and the time-resolved fluorescence signal was measured on an Envision plate reader (PerkinElmer). The activity (%) of the test compound was calculated by defining the value when acetylcholine was added at the final concentration of 20 μM as 100% and the value when DMSO was added instead of the test compound under acetylcholine-free conditions as 0%, and the EC50 value was calculated as a value of 50% of the concentration dependence curve of the test compound.

Series [2] has as its target T2, MDR1 (Homo sapiens, UniProt P08183).
T2 construct: expressed in transfected cells; host or cells: LLC-PK1 cells (porcine kidney)
Briefly: MDR1 membrane permeability test. Particulars: human MDR1-expressing LLC-PK1 cells, 10 μmol/L test compound, pH 7.4, read-out: Efflux ratio (ER). It counts as in vitro ADME. How it is done:
MDR1 membrane permeability test
When MDR1 is expressed in excess in LLC-PK1 cell, which is a polar cell, MDR1 is localized in apical membrane (A), thus promoting transcellular transport from the basement membrane side (B) toward direction A. When a ratio to the transcellular transport in the opposite direction is taken and a ratio to a control cell in which a mock vector has been introduced is further taken, an efflux ratio of MDR1 to simple diffusion (corrected efflux ratio) is calculated. Similarly, when a brain/plasma concentration ratio in Mdr1(−/−) mouse is divided by a brain/plasma concentration ratio in wild-type mouse, an efflux ratio of Mdr1 to simple diffusion in blood-brain barrier (BBB) (Kp, brain ratio, higher value means lower central nervous system permeability) is calculated. Adachi Y. et al. (Reference 1) has reported a positive correlation between corrected efflux ratio and Kp, brain ratio (FIG. 5(C)), and efflux ratio in MDR1 expressing cell and Kp, brain ratio (FIG. 5(B)).
To confirm the central nervous system permeability of the compounds of the present invention, a MDR1 membrane permeability test was performed by the following method.
Digoxin and lucifer yellow (LY) were purchased from Sigma-Aldrich, Diclofenac, colchicine and alprenolol were purchased from Wako Pure Chemical Industries, Ltd., and other reagents used were commercially available products of special grade.
Human MDR1-expressing LLC-PK1 cells were cultured according to the report of Takeuchi et al. (Reference 2). Human MDR1-expressing LLC-PK1 cells were cultured in 10% fetal bovine serum (Invitrogen), 500 μg/ml G418 (Invitrogen), 150 ng/ml colchicine-containing M199 medium (Invitrogen) under 5% CO2 conditions at 37° C.
Transcellular transport was performed according to the report of Sugimoto et al. (Reference 3). The cells were cultured for 3 days on HTS Transwell (registered trademark) 96 well permeable support (pore size 0.4 μm, 0.143 cm^2 surface area, Corning Life Sciences) having polyethylene terephthalate membrane on which the cells had been seeded at 3.45×10^4 cells/well. […] After 1 hr, the sample was collected from the side opposite to the side where the drug solution was added, and the concentration of the test compound was measured by LC-MS/MS. […]
LY was measured by a fluorescence plate reader (Fluoroskan Ascent FL).
Papp, A to B and Papp, B to A (apparent permeability) were calculated from the formula (1), and the efflux ratio (ER) was calculated from the formula (2). […]

In series [3] the test system is Male ICR mice. Briefly: Mouse defecation experiment. It counts as in vivo. Particulars: oral, mean±standard error. How it is done: Mouse Defecation Experiment
Male ICR mice (6-7 weeks old) were used after an acclimation period for about 1 week. A test drug (1 mg/kg or 3 mg/kg) was suspended in 0.5% methylcellulose solution and orally administered at a volume of 10 mL/kg, and the number of feces 2 hr later was counted. Only 0.5% methylcellulose was administered to a solvent administration group.

T2 sequence (P08183 whole entry): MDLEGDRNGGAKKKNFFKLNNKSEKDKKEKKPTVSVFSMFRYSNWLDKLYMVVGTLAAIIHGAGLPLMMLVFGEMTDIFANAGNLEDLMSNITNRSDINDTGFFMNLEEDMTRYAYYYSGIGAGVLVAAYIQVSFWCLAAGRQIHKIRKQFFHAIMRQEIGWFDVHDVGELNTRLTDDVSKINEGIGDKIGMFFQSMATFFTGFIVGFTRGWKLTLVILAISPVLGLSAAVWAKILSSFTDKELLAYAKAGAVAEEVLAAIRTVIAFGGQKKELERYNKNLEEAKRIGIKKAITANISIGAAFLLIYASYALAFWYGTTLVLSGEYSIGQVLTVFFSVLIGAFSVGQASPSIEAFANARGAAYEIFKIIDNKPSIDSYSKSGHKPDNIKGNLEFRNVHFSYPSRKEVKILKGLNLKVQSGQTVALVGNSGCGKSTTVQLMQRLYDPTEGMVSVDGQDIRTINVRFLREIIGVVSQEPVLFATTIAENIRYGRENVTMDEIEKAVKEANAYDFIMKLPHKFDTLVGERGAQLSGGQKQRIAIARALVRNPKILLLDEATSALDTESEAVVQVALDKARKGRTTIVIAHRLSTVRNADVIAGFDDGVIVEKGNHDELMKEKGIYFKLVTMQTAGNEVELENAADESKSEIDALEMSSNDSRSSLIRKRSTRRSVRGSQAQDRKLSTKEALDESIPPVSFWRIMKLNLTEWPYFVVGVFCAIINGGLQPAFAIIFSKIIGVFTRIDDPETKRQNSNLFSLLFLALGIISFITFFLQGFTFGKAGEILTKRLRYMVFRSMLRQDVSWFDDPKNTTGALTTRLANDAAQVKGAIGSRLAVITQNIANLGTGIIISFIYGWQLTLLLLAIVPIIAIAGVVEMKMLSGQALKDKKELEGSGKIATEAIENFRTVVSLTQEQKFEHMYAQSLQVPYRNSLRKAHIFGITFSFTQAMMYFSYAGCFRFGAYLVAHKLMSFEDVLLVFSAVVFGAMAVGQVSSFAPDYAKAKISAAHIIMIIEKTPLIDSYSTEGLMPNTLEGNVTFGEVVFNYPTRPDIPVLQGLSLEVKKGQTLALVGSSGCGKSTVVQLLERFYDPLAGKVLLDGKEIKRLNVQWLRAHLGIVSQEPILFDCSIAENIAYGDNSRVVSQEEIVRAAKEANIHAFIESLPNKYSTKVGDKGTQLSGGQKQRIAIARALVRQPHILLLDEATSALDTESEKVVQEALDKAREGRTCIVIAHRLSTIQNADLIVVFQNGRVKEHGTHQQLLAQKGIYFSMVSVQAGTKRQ

Regarding `Cc1c(Cc2ccc(C(=O)NCC(=O)N(C)C)c(F)c2)cc(C(=O)N[C@H]2CCOC[C@@H]2O)c2c1CCO2` [Example 28, 1,5-anhydro-2,3-dideoxy-3-({5-[(4-{[2-(dimethylamino)-2-oxoethyl]carbamoyl}-3-fluorophenyl)methyl]-4-methyl-2,3-dihydro-1-benzofuran-7-carbonyl}amino)-L-threo-pentitol], the EC50 in series [1] amounted to 8.6 nM. The efflux ratio at 1 h, 10 μmol/L in series [2] came out at 12. In addition, the “number of feces 2 hr later” value in series [3] (1 mg/kg) was 7.2 ± 1.9; in series [3] (3 mg/kg) it was 6.2 ± 1.3.
In the case of `Cc1c(Cc2ccc(-c3cn(C)nn3)cc2)cc(C(=O)N[C@H]2CCOC[C@@H]2O)c2c1CCO2` [Example 1, 1,5-anhydro-2,3-dideoxy-3-[(4-methyl-5-{[4-(1-methyl-1H-1,2,3-triazol-4-yl)phenyl]methyl}-2,3-dihydro-1-benzofuran-7-carbonyl)amino]-L-threo-pentitol], the EC50 in series [1] was 7.9 nM. Also, in series [2], the efflux ratio at 1 h, 10 μmol/L amounted to 3. Also, in series [3] (1 mg/kg), the “number of feces 2 hr later” value came out at 8.8 ± 2.1.
Take `COCCNC(=O)c1ccc(Cc2cc(C(=O)N[C@H]3CCOC[C@@H]3O)c3c(c2C)CCO3)cc1F` [Example 27, 1,5-anhydro-2,3-dideoxy-3-{[5-({3-fluoro-4-[(2-methoxyethyl)carbamoyl]phenyl}methyl)-4-methyl-2,3-dihydro-1-benzofuran-7-carbonyl]amino}-L-threo-pentitol]: the EC50 in series [1] was 14 nM. In addition, in series [2], the efflux ratio at 1 h, 10 μmol/L was found to be 6.2. Further, the figures for the “number of feces 2 hr later” value in series [3] (1 mg/kg) and in series [3] (3 mg/kg) were 7.4 ± 0.9 and 6.2 ± 1.0, respectively.
In the case of `Cc1c(Cc2ccc(C(=O)NC[C@H]3CCCO3)c(F)c2)cc(C(=O)N[C@H]2CCOC[C@@H]2O)c2c1CCO2` [Example 29, 1,5-anhydro-2,3-dideoxy-3-[(5-{[3-fluoro-4-({[(2R)-oxolan-2-yl]methyl}carbamoyl)phenyl]methyl}-4-methyl-2,3-dihydro-1-benzofuran-7-carbonyl)amino]-L-threo-pentitol], the EC50 in series [1] turned out to be 11 nM. Besides, the efflux ratio at 1 h, 10 μmol/L in series [2] amounted to 6.

(Values after US11970483B2, “Heterocyclic compound” (Takeda Pharmaceutical Company Limited, priority 2018, dated 2024).)
